Laboratory results taken from publication PMC4536076, “Chemical Library Screening and Structure-Function Relationship Studies Identify Bisacodyl as a Potent and Selective Cytotoxic Agent Towards Quiescent Human Glioblastoma Tumor Stem-Like Cells” (PLoS ONE, 2015).
Structures can show the parent of a compound that is named as a salt. Where two headings read alike, the source gives them in different places.

How the values were obtained:
[1] = test system: proliferating TG1 GSCs; assay: ATP-Glo dose-response, proliferating TG1 GSCs; format: cell-based, human
Procedure: (§1) The EC50 value was determined for each compound by fitting the data points according to the following equation: y=Smax+Smin*(x*1/EC50)^n/1+(x*1/EC50)^n where y represents the expected response, x is the chemical compound concentration, S max and S min are the maximum and minimum responses recorded, respectively and n is the Hill coefficient. Curve fitting was performed using Microsoft Excel Solver component.
(§2) Proliferating or quiescent TG1 cells were seeded in 50 μL of their respective media (30 000 and 40 000 viable cells/well, respectively) into 96-well opaque bottom plates (Greiner, Courtaboeuf, France). Compound treatment was performed by adding 50 μL of compound solutions (in the presence of 2% DMSO in culture medium). […] All compounds were tested in triplicate in each experiment. Independent experiments were performed at least twice for almost all of the compounds.

[2] = test system: proliferating OB1 GSCs; assay: ATP-Glo dose-response, proliferating OB1 GSCs; format: cell-based; settings: Homo sapiens; ATP Glo readout, 24 h treatment; read-out: P OB1 GSCs EC50
Procedure: as §1
(§3) Similar dose response curves were performed using GSCs isolated from GBM of two other patients (TG16 and OB1 GSCs) grown under proliferating and quiescent conditions.

[3] = test system: quiescent TG1 GSCs; assay: ATP-Glo dose-response, quiescent TG1 GSCs; format: cell-based, human; settings: for EC50: Homo sapiens
Procedure: as §1, §2

[4] = test system: quiescent TG16 GSCs; assay: ATP-Glo dose-response, quiescent TG16 GSCs; format: cell-based, human; settings: Homo sapiens; ATP Glo readout, 24 h treatment; read-out: Q TG16 GSCs EC50
Procedure: as §1, §3

[5] = test system: primary astrocytes (HA cells); assay: ATP-Glo dose-response, primary astrocytes; format: cell-based, human; settings: Homo sapiens, Astrocyte; ATP Glo readout, 24 h treatment
[6] = test system: fetal neural stem cells (f-NSC); assay: ATP-Glo dose-response, fetal neural stem cells; format: cell-based; settings: Homo sapiens, Neural stem cell; ATP Glo readout, 24 h treatment
[7] = test system: HEK 293 cells; assay: ATP-Glo dose-response, HEK 293 cells; format: cell-based, human; settings: Homo sapiens, HEK293; ATP Glo readout, 24 h treatment
Procedure: as §1, with “component. […]” for “component.”

[8] = test system: quiescent OB1 GSCs; assay: ATP-Glo dose-response, quiescent OB1 GSCs; format: cell-based, human; settings: Homo sapiens; ATP Glo readout, 24 h treatment; read-out: Q OB1 GSCs EC50
Procedure: as §1, §3

[9] = test system: proliferating TG1 GSCs; settings: primary screen, 50 μM, 24 h
Procedure: (§4) Proliferating or quiescent TG1 GSCs were seeded (30 000 and 40 000 viable cells/well, respectively) into 96-well opaque bottom plates (Greiner) with the Biomek FX robot (Beckman Coulter). Each compound from the Prestwick Library was then added (final concentration: 50 μM; 1% DMSO). Each molecule was tested once. Negative control wells (12/96 per assay plate) contained cells treated with 1% DMSO (final concentration) and positive control wells (4/96 per assay plate) contained cells treated with the fungal toxin ophiobolin A (Sigma Aldrich) at 50 μM with 1% DMSO. […] Luminescence in each well was measured with the Victor3 plate reader (PerkinElmer).
(§5) Relative ATP levels in each well were determined by calculating the percentage of luminescent signal in the well with respect to the average signal measured in negative control wells.
(§6) Primary screen hits were further tested in duplicate, at two concentrations (50 and 5 μM) on proliferating and quiescent TG1 GSCs. Cell plating and treatment with compounds were as for the primary screen. Hit selection/confirmation criteria for quiescent cells were as described above.

[10] = test system: quiescent TG1 GSCs; settings: primary screen, 50 μM, 24 h
Procedure: as §4, §5, §6

[11] = test system: proliferating TG16 GSCs; assay: ATP-Glo dose-response, proliferating TG16 GSCs; format: cell-based, human; settings: Homo sapiens; ATP Glo readout, 24 h treatment; read-out: P TG16 GSCs EC50
Procedure: as §1, §3

[12] = Homo sapiens, 24 h, ATP Glo readout, 24 h treatment, n = 3, read-out: P TG1 GSCs EC50
[13] = 24 h, ATP Glo readout, 24 h treatment, n = 3, read-out: Q TG1 GSCs EC50
[14] = Homo sapiens, 24 h, SAR study, ATP-Glo cell survival assay, 24 h, triplicate, read-out: Proliferating TG1 GSCs EC50
[15] = 24 h, SAR study, ATP-Glo cell survival assay, 24 h, triplicate, read-out: Quiescent TG1 GSCs EC50
[16] = SAR study, ATP-Glo cell survival assay, 24 h, triplicate

SMILES	EC50 [1, 12] [µM]	EC50 [2] [µM]	EC50 [3, 13] [µM]	EC50 [4] [µM]	EC50 [5] [µM]	EC50 [6] [µM]	EC50 [7] [µM]	EC50 [8] [µM]	Activity on proliferating TG1 GSCs (hit compounds reducing ATP levels) [9]	Activity on quiescent TG1 GSCs (hit compounds reducing ATP levels) [10]	EC50 [11] [µM]	EC50 [1, 14] [µM]	EC50 [3, 15] [µM]	Proliferating TG1 GSCs EC50 [1, 16]	Quiescent TG1 GSCs EC50 [3, 16]	EC50 ([1]; ATP Glo readout, 24 h treatment, n = 3, read-out: P TG1 GSCs EC50) [µM]	EC50 ([1]; Homo sapiens, ATP Glo readout, 24 h treatment, n = 3, read-out: P TG1 GSCs EC50) [µM]	EC50 ([3]; ATP Glo readout, 24 h treatment, n = 3, read-out: Q TG1 GSCs EC50) [µM]
Cc1c2ccncc2c(C)c2c1[nH]c1ccccc12 [Ellipticine]	13 ± 1	8 ± 1	19 ± 5	56 ± 10	5 ± 1	7 ± 2	13 ± 2	30 ± 9	yes	yes	13 ± 1							
OCCN1CCN(CC/C=C2/c3ccccc3Sc3ccc(Cl)cc32)CC1 [Zuclopenthixol hydrochloride]	20 ± 3	27 ± 9	52 ± 3	48 ± 18	12 ± 1	13 ± 1	29 ± 1	> 100	yes		29 ± 5							
CCCCCCCCNC(C)C(O)c1ccc(SC(C)C)cc1 (stereo not shown) [Suloctidil]	11 ± 1	15 ± 2	13 ± 1	14 ± 6	11 ± 1	5 ± 1	10 ± 1	20 ± 4	yes	yes	13.5 ± 0.1							
CC(=O)[C@H]1CC[C@H]2[C@@H]3CCC4=CC(=O)CC[C@]4(C)[C@H]3CC[C@]12C [Progesterone]	> 100	89 ± 29	25 ± 11	25 ± 9	> 100	> 100	36 ± 10	23 ± 11		yes	75 ± 6							
Oc1ccc(C(c2ccc(Cl)cc2)c2ccccn2)cc1 (stereo not shown) [Compound 10, 4-hydroxyphenyl-4-chlorophenyl-pyridin-2-yl-methane]												> 100	4 ± 1.4					
Oc1ccc(Cc2ccc(O)cc2)cc1 [Compound 13, Bis(4-hydroxyphenyl)methane]														No activity	No activity			
CC(C)(C)c1ccc(C(O)CCCN2CCC(C(O)(c3ccccc3)c3ccccc3)CC2)cc1 (stereo not shown) [Terfenadine]	~10	10 ± 2	17 ± 1	24 ± 6	9 ± 2	4 ± 1	8 ± 1	22 ± 4	yes	yes	9 ± 1					8 ± 1		
CC(=O)Oc1ccc(C(c2ccc(O)cc2)c2ccccn2)cc1 (stereo not shown) [Compound 3, 4-((4-hydroxyphenyl)(pyridin-2-yl)methyl)phenyl acetate]												> 100	1 ± 0.5					
Oc1ccc(C(c2ccc(O)cc2)c2cc(Br)ccn2)cc1 [Compound 18, 4,4'-dihydroxyphenyl-2-(4-bromopyridinyl)-methane]													0.36 ± 0.06	No activity				
CC[C@H](C)[C@H]1O[C@]2(CC[C@@H]1C)C[C@@H]1C[C@@H](C/C=C(\C)[C@@H](O[C@H]3C[C@H](OC)[C@@H](O[C@H]4C[C@H](OC)[C@@H](O)[C@H](C)O4)[C@H](C)O3)[C@@H](C)/C=C/C=C3\CO[C@@H]4[C@H](O)C(C)=C[C@@H](C(=O)O1)[C@]34O)O2 [Ivermectin]		3 ± 1		6 ± 2	3 ± 1	4 ± 1	13 ± 1	7 ± 2	yes	yes	1.5 ± 0.2						3 ± 1	4 ± 1
